Measured values reported in patent US5032597A, “Method of using phenylquinolinecarboxylic acids and derivatives for lymthoid leukemia treatment in a mammal” (priority 1987, dated 1991).
≈ marks a conversion by molar mass, not a printed value. Where “and” joins values, the source holds several entries; their conditions need not be identical. Identical values can stand only once. Like-named read-outs stand apart in the source and are kept apart here.

Key:
[1] = tested on: human colon carcinoma cells HCT-15; assay: Human colon tumor test in vitro, HCT-15 cell growth inhibition; assay type: cell-based; details: HCT-15 cells, compound day 1 to day 4; for in vitro HCT-15 ID50 (50 percent inhibition of number of doublings): 4320 min; for IC50: Homo sapiens, HCT-15, 72 h, read-out: in vitro HCT-15 ID50 (50 percent inhibition of number of doublings)
Protocol: The compound of this invention were also tested for their ability to inhibit the growth of human colon carcinoma cells in vitro.
The human colon carcinoma cells, designated HCT-15, were derived from a specimen of an adenocarcinoma of human colon removed during surgery. The cells were grown in Roswell Park Medical Institute (RPMI) Medium 1640 supplemented with 10% heat inactivated fetal calf serum, penicillin (100 units/ml), streptomycin (100 μg/ml), gentamicin (20 μg/ml), fungizone (25 μg/ml), 0.075 percent sodium bicarbonate, […] 4-(2-hydroxyethyl)-1-piperazineethanesulfonic acid and […] N-tris(hydroxymethyl)methylglycine. […] On day 1 cells from sample dishes were harvested using trypsin (0.25%) treatment and counted with a hemocytometer to determine the number of cells per dish at the time of the addition of the compounds. Compounds of this invention were added in varying concentrations to other cultures. On day 4, treated and control cultures were harvested by trypsin treatment and the number of cells was determined. The number of doublings for the control cells was determined from the cell numbers on days 1 and 4. The ID50, the concentration of compound required to inhibit by 50 percent the number of doublings, was then calculated from the dose-response curve in which cell numbers were plotted on log-log paper against compound concentrations in micrograms per ml.

[2] = tested on: L1210 leukemia; assay: Lymphoid Leukemia L1210, survival of tumored mice; assay type: in vivo, CD2F1 mice; details: for response vs control in vivo at 25 mg/kg: 25 mg/kg i.p.; for response vs control in vivo at 300 mg/kg: 300 mg/kg i.p.; for response vs control in vivo at 50 mg/kg: 50 mg/kg i.p.; for response vs control in vivo at 12.5 mg/kg: 12.5 mg/kg i.p.; for response vs control in vivo at 200 mg/kg: 200 mg/kg i.p.; for response vs control in vivo at 400 mg/kg: 400 mg/kg i.p.
Protocol: The efficacy of the compounds of this invention against the transplanted mouse tumors was evaluated in test systems currently in use at the National Cancer Institute for the detection and assessment of anticancer activity. […] J. Cancer, 17, 129-142, (1981); Venditti, J. M., Seminars in Oncology, 8 (4) (1981); Goldin, A. and J. M. Venditti, in Recent Results in Cancer Research, 70, S. K. Carter and Y. Sakurai, Eds., Springer-Verlag, Berlin/Heidelberg, 1980].
The animals used in this test were CD2 F1 mice, all males weighing a minimum of 18 g and all within a 4 g weight range at the start of the test. The test group consisted of six mice. The tumor was implanted in each of the test mice by the intraperitoneal injection of 0.1 ml of diluted ascitic fluid containing 10^5 cells drawn from a mouse with L1210 leukemia. The test compounds were suspended in hydroxypropylcellulose or saline with Tween® 80 surfactant or dissolved in saline and injected intraperitoneally, at various doses, once daily for nine consecutive days starting on day one relative to the day of tumor inoculation (day 0). The control mice received injections of saline or hydroxypropylcellulose vehicle only. The mice were weighed and survivors were recorded on a regular basis for 30 days. The median survival time and the ratio of the median survival time for the treated (T) and control (C) mice was calculated. […] Drug effectiveness was assessed on the basis of the survival time. Results were expressed as a percentage of the control survival time (Median Survival Time: T/C ×100%). The criterion for effectiveness was determined by: T/C×100≥125 percent.

[3] = Mus musculus, L1210, ip, 720 h, nonoptimal Q1DX9 instead of Q3DX9, read-out: L1210 Leukemia % T/C (median survival time)
[4] = Mus musculus, L1210, ip, 720 h, read-out: L1210 Leukemia % T/C (median survival time)
[5] = Mus musculus, L1210, ip, 720 h, 100 mg/kg i.p., read-out: L1210 Leukemia % T/C (median survival time)
[6] = Mus musculus, L1210, ip, 720 h, 75 mg/kg i.p., read-out: L1210 Leukemia % T/C (median survival time)

Structure (SMILES) | in vitro HCT-15 ID50 (50 percent inhibition of number of doublings) [1] | IC50 [1] [µg/mL] | further results
CCCCCCCCCCc1ccc(-c2nc3ccc(F)cc3c(C(=O)O)c2C)cc1 [Example 97] | 0.14 µg/mL | – | response vs control in vivo at 25 mg/kg [2, 3]: 110%
Cc1c(-c2ccc(SCc3ccccc3)cc2)nc2ccc(F)cc2c1C(=O)O [Example 26] | – | < 0.5 | response vs control in vivo at 300 mg/kg [2, 4]: 136%
Cc1c(-c2ccc(-c3ccccc3)cc2)nc2ccc(Cl)cc2c1C(=O)O [Example 109] | < 0.50 µg/mL | – | response vs control in vivo at 100 mg/kg [2, 5]: 172%
CCc1c(-c2ccc(-c3ccccc3)cc2)nc2ccc(F)cc2c1C(=O)O [Example 108] | 0.10 µg/mL | – | L1210 Leukemia % T/C (median survival time) ([2]; 100 mg/kg i.p.): 166%
Cc1c(-c2ccc(-c3ccccc3)cc2)nc2cc(Cl)c(Cl)cc2c1C(=O)O [Example 137] | > 5.00 µg/mL | – | response vs control in vivo at 50 mg/kg [2, 3]: 107%
Cc1c(-c2ccc(Oc3ccccc3)cc2)nc2ccc(F)cc2c1C(=O)O [Example 11] | 0.19 µg/mL | – | response vs control in vivo at 25 mg/kg [2, 4]: 176%
Cc1c(-c2ccc(-c3ccccc3)cc2)nc2cc(F)ccc2c1C(=O)O [Example 87] | – | < 0.5 | response vs control in vivo at 100 mg/kg [2, 5]: 146%
Cc1c(-c2ccc(Oc3ccccc3)cc2)nc2ccc(F)cc2c1C(=O)O [Example 101] | 0.41 µg/mL | – | response vs control in vivo at 50 mg/kg [2, 4]: 154%
Cc1c(-c2ccc(Oc3ccccc3)cc2)nc2cc(Cl)ccc2c1C(=O)O [Example 50] | – | > 5 | response vs control in vivo at 100 mg/kg [2, 5]: 131%
CSc1ccc2nc(-c3ccc(-c4ccccc4)cc3)c(C)c(C(=O)O)c2c1 [Example 161] | – | > 1 | response vs control in vivo at 100 mg/kg [2, 5]: 148%
Cc1c(-c2ccc(-c3ccccc3F)cc2)nc2ccc(F)cc2c1C(=O)OCCN(C)C [Example 197, 6-Fluoro-2-(2'-fluoro-1,1'-biphenyl-4-yl)-3-methyl-[(2dimethylamino)ethyl]ester-4-quinolinecarboxylic acid] | < 0.01 µg/mL | – | response vs control in vivo at 50 mg/kg [2, 4]: 179%
Cc1c(-c2ccc(-c3ccc(F)cc3F)cc2)nc2ccc(F)cc2c1C(=O)O [Example 188] | – | < 0.01 | response vs control in vivo at 12.5 mg/kg [2, 4]: 187%
Cc1ccc(-c2ccc(-c3nc4ccc(F)cc4c(C(=O)O)c3C)cc2)cc1 [Example 30] | – | < 0.5 | response vs control in vivo at 300 mg/kg [2, 4]: 291%
Cc1ccc2c(C(=O)O)c(C)c(-c3ccc(-c4ccccc4)cc3)nc2c1 [Example 145] | – | < 0.5 | response vs control in vivo at 75 mg/kg [2, 6]: 132%
CCc1ccc2nc(-c3ccc(-c4ccccc4)cc3)c(C)c(C(=O)O)c2c1 [Example 51] | – | < 0.5 | L1210 Leukemia % T/C (median survival time) ([2]; 75 mg/kg i.p.): 173%
Cc1c(-c2ccc(Oc3ccccc3)cc2)nc2ccc(Cl)cc2c1C(=O)O [Example 20] | – | < 0.5 | response vs control in vivo at 200 mg/kg [2, 4]: 211%
Cc1c(-c2ccc(C3CCCCC3)cc2)nc2ccc(Cl)cc2c1C(=O)O [Example 93] | 0.06 µg/mL and 0.04 µg/mL | – | response vs control in vivo at 50 mg/kg [2, 3]: 101%

Structure (SMILES) | in vitro HCT-15 ID50 (50 percent inhibition of number of doublings) [1] | IC50 [1] [µg/mL] | further results
Cc1c(-c2ccc(OCc3ccccc3)cc2)nc2ccc(F)cc2c1C(=O)O [Example 106] | 1.20 µg/mL | – | response vs control in vivo at 25 mg/kg [2, 3]: 107%
O=C(O)c1cc(-c2ccc(-c3ccccc3)cc2)nc2ccc(F)cc12 [Example 33] | – | < 0.5 | response vs control in vivo at 200 mg/kg [2, 4]: 170%
CCc1c(-c2ccc(-c3ccccc3)cc2)nc2ccc(F)cc2c1C(=O)O [Example 18] | < 0.50 µg/mL | – | response vs control in vivo at 100 mg/kg [2, 5]: 185%
CCc1c(-c2ccc(C(C)CC)cc2)nc2ccc(F)cc2c1C(=O)O (stereo not drawn) [Example 17] | 0.65 µg/mL | – | response vs control in vivo at 400 mg/kg [2, 4]: 136%
Cc1ccc2nc(-c3ccc(C4CCCCC4)cc3)c(C)c(C(=O)O)c2c1 [Example 6] | 0.24 µg/mL | – | response vs control in vivo at 400 mg/kg [2, 4]: 162%
Cc1c(-c2ccc(Oc3ccc(Cl)cc3)cc2)nc2ccc(F)cc2c1C(=O)O [Example 29] | – | < 0.5 | L1210 Leukemia % T/C (median survival time) ([2]; 18 mg/kg i.p.): 194%
Cc1c(-c2ccc(SC(C)C)cc2)nc2ccc(F)cc2c1C(=O)O [Example 13] | – | 0.24 (≈ 0.675 µM) | response vs control in vivo at 400 mg/kg [2, 4]: 129%
Cc1c(-c2ccc(-c3ccc(O)cc3)cc2)nc2ccc(Cl)cc2c1C(=O)O [Example 192, 6-Chloro-2-(4'-hydroxy-1,1'biphenyl-4-yl)-3-methyl-4-quinolinecarboxylic acid] | – | > 1 | response vs control in vivo at 200 mg/kg [2, 4]: 166%
O=C(O)c1cc(-c2ccc(Oc3ccc(F)cc3)cc2)nc2ccc(F)cc12 [Example 187] | – | < 0.5 | response vs control in vivo at 75 mg/kg [2, 6]: 131%
Cc1c(-c2ccc(Sc3ccccc3)cc2)nc2ccc(Cl)cc2c1C(=O)O [Example 111] | – | < 0.5 | response vs control in vivo at 25 mg/kg [2, 4]: 125%
Cc1c(-c2ccc(-c3ccccc3)cc2)nc2ccc(Cl)cc2c1C(=O)O [Example 171] | < 0.50 µg/mL | – | L1210 Leukemia % T/C (median survival time) ([2]; 100 mg/kg i.p.): 164%
CCCCCCc1ccc(-c2nc3ccc(F)cc3c(C(=O)O)c2C)cc1 [Example 180] | < 0.50 µg/mL | – | response vs control in vivo at 18 mg/kg ([2]; Mus musculus, L1210, ip, 720 h, 18 mg/kg i.p., nonoptimal Q1DX9 instead of Q3DX9, read-out: L1210 Leukemia % T/C (median survival time)): 101%
Cc1c(-c2ccc(-c3ccc(Br)cc3)cc2)nc2ccc(F)cc2c1C(=O)O [Example 102] | 1.0 µg/mL and 1.9 µg/mL | – | response vs control in vivo at 12.5 mg/kg [2, 4]: 164%
Cc1ccc2nc(-c3ccc(-c4ccccc4)cc3)c(C)c(C(=O)O)c2c1 [Example 14] | – | 0.38 (≈ 1.08 µM) | response vs control in vivo at 50 mg/kg [2, 4]: 195%
Cc1c(-c2ccc(-c3ccccc3)cc2)nc2ccc(Cl)cc2c1C(=O)O [Example 19] | – | < 0.5 | response vs control in vivo at 25 mg/kg [2, 4]: 234%
Cc1c(-c2ccc(-c3cccc(F)c3)cc2)nc2ccc(F)cc2c1C(=O)O [Example 73] | – | < 0.1 | response vs control in vivo at 50 mg/kg [2, 4]: 195%
